# Source: patent US20180343865A1, “HERBICIDAL COMPOSITIONS COMPRISING ISOXAZOLO[5,4-B]PYRIDINES” (BASF SE, priority 2015, published 2018)
# “And” between values parts separate entries of the source, which are not always exact repeats. Identical values can stand only once. Like-named read-outs stand apart in the source and are kept apart here.
# Key:
# Type in all cases: in vivo
# Ambrosia elatior = assay: Greenhouse postemergence herbicidal activity on AMBEL, 20 DAT; details: AMBEL, postemergence, 20 DAT
# Method: (§1) For the post emergence treatment, the plants were first grown to the 2 leaf station (GS 12) and applied at GS 12-19 depending on the species. The herbicidal compositions were suspended or emulsified in water as distribution medium and sprayed using finely distributing nozzles.
# (§2) The plants have been cultivated due to their individual requirements at 10 to 25° C. and. 20 to 35° C. The plants were irrigated due to their necessity.
# (§3) The respective stated components A), were formulated as a 5% by weight strength emulsion concentrate containing wettol EM 31 20% and Cyclohexanone 80%. The respective stated components B), were formulated as either emulsifiable concentrates (EC), soluble liquids (SL), suspension concentrates (SC) or soluble granules (SG) as indicated in the table below. Component A, component B and the solvent system are introduced into the spray liquor used for applying the active compound. In the examples, the solvent used was water containing 1% Dash (Agnique ME 181 37.5%, Lutensit A-EP 22.5%, and Oleic Acid 5%) and 2% ammonium suflate.
# (§4) In the following experiments, the herbicidal activity for the individual herbicide compounds (solo and mixture applications), the herbicidal succession was assessed 20 days after treatment (DAT). The evaluation for the damage on undesired weeds caused by the chemical compositions was carried out using a scale from 0 to 100%, compared to the untreated control plants. Here, 0 means no damage and 100 means complete destruction of the plants. The plants used in the greenhouse experiments belonged to the following species:
# (§5) The value E, which corresponds to the effect (in %) that is to be expected if the activity of the individual compounds is additive, was calculated using the method of S. R. Colby (1967) “Calculating synergistic and antagonistic responses of herbicide combinations”, Weeds 15, p. 22 ff. Colby calculation for 2 way mixtures:
# (§6) where: • X=effect in percent using herbicide A at an application rate a; • Y=effect in percent using herbicide B at an application rate b; • E=expected effect (in %) of A+B at application rates a+b
# (§7) If the value observed in this manner is higher than the value E calculated according to Colby, a synergistic effect is present.
# Setaria viridis = assay: Greenhouse postemergence herbicidal activity on SETVI, 20 DAT; details: post-emergence, 62.5 gai/ha, Table 8, read-out: % activity, solo application (I.A)
# Method: as §1, §2
# The respective stated components A), were formulated as a 5% by weight strength emulsion concentrate containing wettol EM 31 20% and Cyclohexanone 80%. The respective stated components B), were formulated as either emulsifiable concentrates (EC), soluble liquids (SL), suspension concentrates (SC) or soluble granules (SG) as indicated in the table below. […]
# In the following experiments, the herbicidal activity for the individual herbicide compounds (solo and mixture applications), the herbicidal succession was assessed 20 days after treatment (DAT). […]
# The value E, which corresponds to the effect (in %) that is to be expected if the activity of the individual compounds is additive, was calculated using the method of S. R. Colby (1967) “Calculating synergistic and antagonistic responses of herbicide combinations”, Weeds 15, p. […]
# as §7
# Chenopodium album = assay: Greenhouse postemergence herbicidal activity on CHEAL, 20 DAT; details: for inhibition at 15.6 g/ha: 15.6 gai/ha; for inhibition at 125 g/ha: 125 gai/ha; for inhibition at 250 g/ha: 250 gai/ha
# Method: as §1, §2, §3, §4, §5, §6, §7
# Matricaria chamomilla = assay: Greenhouse postemergence herbicidal activity on MATCH, 20 DAT; details: Matricaria chamomilla, post-emergence, 62.5 gai/ha
# Method: as §1, §2, §3, §4, §5, §6, §7
# Polygonum aviculare = assay: Greenhouse postemergence herbicidal activity on POLAV, 20 DAT; details: Polygonum aviculare, post-emergence, 480 h, read-out: % activity, solo (I.A)
# Method: as §1, §2, §3, §4, §5, §6, §7
# Sorghum bicolor = assay: Greenhouse postemergence herbicidal activity on SORVU, 20 DAT; details: Sorghum bicolor, post-emergence, 480 h, SORVU, postemergence, 20 DAT, read-out: % activity, solo (I.A)
# Method: as §1, §2, §3, §4, §5, §6, §7
# Sinapis arvensis = assay: Greenhouse postemergence herbicidal activity on SINAR, 20 DAT; details: Mutarda arvensis, post-emergence, 480 h, read-out: % activity, solo (I.A)
# Method: as §1, §2, §3, §4, §5, §6, §7
# Galium aparine = assay: Greenhouse postemergence herbicidal activity on GALAP, 20 DAT; details: Galium aparine, post-emergence; for inhibition at 31.25 g/ha: 31.25 gai/ha; for inhibition at 62.5 g/ha: 62.5 gai/ha; for inhibition at 125 g/ha: 125 gai/ha; for inhibition at 250 g/ha: 250 gai/ha
# Method: as §1, §2, §3, §4, §5, §6, §7
# AVEFA = assay: Greenhouse postemergence herbicidal activity on AVEFA, 20 DAT; details: Avena fatua, post-emergence, Table 8, read-out: % activity, solo application (I.A)
# CONAR = assay: Greenhouse postemergence herbicidal activity on CONAR, 20 DAT; details: post-emergence, Table 8, read-out: % activity, solo application (I.A)
# [1] = Chenopodium album, post-emergence, Table 6, read-out: % activity, solo application (I.A)
# [2] = Chenopodium album, post-emergence, 480 h, 20 DAT, read-out: % activity, solo (I.A)
# [3] = Table 8, read-out: % activity, solo application (I.A)
# [4] = 480 h, 20 DAT, read-out: % activity, solo (I.A)
# [5] = Table 6, read-out: % activity, solo application (I.A)
structure (smiles),measurement,setting,value
CC(C)c1noc2nc(C3CC3)cc(C(=O)O)c12 [(I.A)],"% activity, solo (I.A)",Ambrosia elatior; 31.25 gai/ha,50% and 25%
same,inhibition at 15.6 g/ha,"Ambrosia elatior; Ambrosia artemisiifolia, post-emergence, 480 h, 15.6 gai/ha, read-out: % activity, solo (I.A)",0%
same,inhibition at 62.5 g/ha,"Ambrosia elatior; Ambrosia artemisiifolia, post-emergence, 480 h, 62.5 gai/ha, read-out: % activity, solo (I.A)",70%
same,inhibition at 62.5 g/ha,Setaria viridis,30%
same,"% activity, solo (I.A)","Chenopodium album; 62.5 gai/ha, 20 DAT",65% and 93%
same,inhibition at 7.8 g/ha,"Chenopodium album; Chenopodium album, post-emergence, 7.8 gai/ha, Table 8, read-out: % activity, solo application (I.A)",50%
same,inhibition at 15.6 g/ha,"Chenopodium album; Chenopodium album, post-emergence, Table 8, read-out: % activity, solo application (I.A)",85%
same,inhibition at 31.25 g/ha,"Chenopodium album; Chenopodium album, post-emergence, 31.25 gai/ha, Table 6, read-out: % activity, solo application (I.A)",58%
same,inhibition at 62.5 g/ha,"Chenopodium album; Chenopodium album, post-emergence, 62.5 gai/ha, Table 6, read-out: % activity, solo application (I.A)",78%
same,inhibition at 125 g/ha,Chenopodium album; [1],83%
same,inhibition at 250 g/ha,Chenopodium album; [1],98%
same,inhibition at 15.6 g/ha,Chenopodium album; [2],10%
same,inhibition at 125 g/ha,Chenopodium album; [2],83%
same,inhibition at 250 g/ha,Chenopodium album; [2],98%
same,inhibition at 62.5 g/ha,Matricaria chamomilla; [3],70%
same,inhibition at 62.5 g/ha,Matricaria chamomilla; [4],65%
same,inhibition at 15.6 g/ha,Polygonum aviculare; 15.6 gai/ha,10%
same,inhibition at 31.25 g/ha,Polygonum aviculare; 31.25 gai/ha,35%
same,inhibition at 62.5 g/ha,Polygonum aviculare; 62.5 gai/ha,50%
same,inhibition at 125 g/ha,Polygonum aviculare; 125 gai/ha,90%
same,inhibition at 15.6 g/ha,Sorghum bicolor; 15.6 gai/ha,30%
same,inhibition at 31.25 g/ha,Sorghum bicolor; 31.25 gai/ha,30%
same,inhibition at 62.5 g/ha,Sorghum bicolor; 62.5 gai/ha,30%
same,inhibition at 125 g/ha,Sorghum bicolor; 125 gai/ha,40%
same,inhibition at 15.6 g/ha,Sinapis arvensis; 15.6 gai/ha,95%
same,inhibition at 31.25 g/ha,Sinapis arvensis; 31.25 gai/ha,78%
same,inhibition at 62.5 g/ha,Sinapis arvensis; 62.5 gai/ha,83%
same,inhibition at 125 g/ha,Sinapis arvensis; 125 gai/ha,90%
same,inhibition at 31.25 g/ha,Galium aparine; [5],43%
same,inhibition at 62.5 g/ha,Galium aparine; [5],60%
same,inhibition at 62.5 g/ha,Galium aparine; [3],45%
same,inhibition at 125 g/ha,Galium aparine; [5],73%
same,inhibition at 250 g/ha,Galium aparine; [5],95%
same,inhibition at 31.25 g/ha,Galium aparine; [4],43%
same,inhibition at 62.5 g/ha,Galium aparine; [4],60%
same,inhibition at 125 g/ha,Galium aparine; [4],73%
same,inhibition at 250 g/ha,Galium aparine; [4],95%
same,inhibition at 15.6 g/ha,AVEFA; 15.6 gai/ha,0%
same,inhibition at 62.5 g/ha,AVEFA; 62.5 gai/ha,20%
same,inhibition at 7.8 g/ha,CONAR; 7.8 gai/ha,0%
same,inhibition at 15.6 g/ha,CONAR; 15.6 gai/ha,0%
same,inhibition at 31.25 g/ha,CONAR; 31.25 gai/ha,0%
same,inhibition at 62.5 g/ha,CONAR; 62.5 gai/ha,35%
